AC26 data for 96 compounds are collected here from PubChem BioAssay AID624491 (Broad Institute, 2012).

In the assay the test system is D54 ERlucT glycosylation luciferase reporter, luminescence, 24 h. Description: N-linked glycosylation inhibitors, luciferase reporter, dose response, D54 ERlucT cells, luminescence, cherry-picks (AID 624491).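 Note: signal gain reflects blocked N-linked glycosylation of a luciferase reporter; actives raise luciferase signal so AC26 marks activators of the reporter.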

Regarding `Cc1ccc(C(=O)Nc2cc(S(=O)(=O)N3CCOCC3)ccc2N2CCCC2)cc1`, the AC26 was 1310 nM.
In the case of `Cn1c(-c2ccccc2)c(/C=N/NC(=O)c2cccnc2)c2ccccc21`, the AC26 is 247 nM.
As for `CC(=O)O[C@H]1C(=O)[C@@]2(C)C([C@H](OC(=O)c3ccccc3)[C@]3(O)C[C@H](O)C(C)=C1C3(C)C)[C@]1(OC(C)=O)CO[C@@H]1C[C@H]2O` (stereo partly specified), the AC26 was 6460 nM.
Consider `COCCNC(=O)c1cc(-c2cccs2)on1`, for which the AC26 was 4600 nM.
Regarding `Cc1ccc(C2=NN(C(=O)CSc3nccn3C)C(c3ccco3)C2)cc1` (stereo unspecified), the AC26 was 6070 nM.
With `O=C1CCCN1c1ccc(S(=O)(=O)Nc2ccc3c(c2)OCCO3)cc1`, the AC26 is 9890 nM.
The figure for `CCn1c(=O)cc(SCC(=O)NCCCN2CCN(c3ccc(F)cc3)CC2)c2ccccc21` is 9830 nM; for `C=CCOc1ccc(C(=O)Nc2ccccc2C(=O)NCc2cccnc2)cc1` it is 2160 nM.
Take `Cc1cc(C)cc(N2C(=O)NC(=O)/C(=C\C=C\c3ccco3)C2=O)c1`: the AC26 is 1130 nM.
In the case of `c1ccc2c(c1)C1=NCCN1c1ccccc1-2`, the AC26 is 544 nM.
Under `c1ccc2c(c1)oc1c(-c3ccc4nccn4c3)cccc12` stands 8270 nM; under `COc1cc(/C=N/NC(=O)c2ccc(-c3ccccc3)cc2)cc(OC)c1OC`, 1350 nM.
Consider `COc1ccc2c(c1)OC[C@H]1[C@H]2N2C(=O)c3cc(Br)ccc3NC(=O)[C@@]2(C)[C@H]1c1ccccc1`, for which the AC26 was 976 nM.
For `COc1ccc(F)cc1-c1cc(NC(C)=O)c2ncc(-c3cc(OC)c(OC)c(OC)c3)n2c1`, the AC26 is 11300 nM.
The figure for `COc1cc(NC(=O)c2ccccc2F)ccc1NC(=O)c1cc2ccccc2o1` is 2390 nM; for `COc1cccc(C2=CC(c3cccc(OC)c3OC)n3nnnc3N2)c1` (stereo unspecified) it is 1300 nM; for `Cn1cc(C(=O)N/N=C/C(Br)=C/c2ccccc2)ccc1=O` it is 2850 nM.
Turning to `COc1cc(CN2CCc3ccccc3C2)ccc1O`, the AC26 was 696 nM.
Regarding `CCN(CC)S(=O)(=O)c1ccc(-c2nnc(SCC(=O)N3CCc4ccccc43)o2)cc1`, the AC26 is 1460 nM.
Consider `CCN(CC)c1ccc(NC(=O)c2cc(OC)cc(OC)c2)c(C)c1`, for which the AC26 is 932 nM.
As to `O=C1NC(=O)C(=Cc2c(Cl)cccc2Cl)C(=O)N1`, the AC26 was 2240 nM.
Take `CCn1c2ccccc2c2cc(Nc3cc(C)nc4ncnn34)ccc21`: the AC26 was 69.8 nM.
As for `O=C(CC1Sc2ccccc2NC1=O)NNc1ccc(Cl)c(Cl)c1` (stereo unspecified), the AC26 is 2840 nM.
In the case of `Cc1ccc(-c2cc(C(=O)NCC(c3ccccc3)N(C)C)c3ccccc3n2)o1` (stereo unspecified), the AC26 was 11400 nM.
As for `CC(C)CC(NC(=O)c1ccc(Cl)cc1)C(=O)OCC(=O)c1ccc2c(c1)NC(=O)CO2` (stereo unspecified), the AC26 is 4090 nM.
Regarding `COc1ccccc1C1CC(=O)Nc2cc3c(cc21)OCCO3` (stereo unspecified), the AC26 was 10500 nM.
As to `Oc1ccc(Nc2nc(NCC3CCCO3)c3ccccc3n2)cc1` (stereo unspecified), the AC26 is 1110 nM.
The figure for `COc1ccccc1NS(=O)(=O)c1ccc(C(=O)Nc2ncccc2O)cc1` is 7090 nM; for `COc1cccc(OCc2nc3ncc(Br)cc3[nH]2)c1` it is 1810 nM.
Turning to `CCCCc1ccc(N/C(N)=N/c2nc(C)cc(C)n2)cc1`, the AC26 is 4690 nM.
As for `Cc1c(C(=O)Nc2ccc3oc(-c4cccnc4)nc3c2)oc2ccccc12`, the AC26 is 8840 nM.
Regarding `CC(C)/C=C1\CC/C(=C\c2cccnc2)C1=O`, the AC26 is 4840 nM.
Consider `COc1ccc(Nc2nc(-c3sc(C)nc3C)cs2)c(OC)c1`, for which the AC26 was 1240 nM.
`COc1ccccc1-c1cc(NC=O)c2ncc(-c3cccc(C(=O)N(C)C)c3)n2c1`: the AC26 is 4020 nM.
As to `CC(C)c1ccc(OCc2ccc(C(=O)N3CCCC3)o2)cc1`, the AC26 is 4230 nM.
In the case of `CCOc1cc(/C=C/C(=O)c2ccc3c(c2)OCCO3)ccc1OCC(=O)N(C)C`, the AC26 is 3700 nM.
Turning to `O=C(N/N=C/c1ccc(Cl)cc1)c1cc(-c2cccnc2)nc2ccccc12`, the AC26 was 417 nM.
As for `O=C(Nc1ccncc1)C1CCCN(S(=O)(=O)c2cccc3cccnc23)C1` (stereo unspecified), the AC26 was 579 nM.
For the compound `CCOC(=O)N1CCN(c2c(NCc3ccc(F)cc3)c(=O)c2=O)CC1`, the AC26 was 8400 nM.
On to `CCc1ccc(C(=O)Nc2ccc3c(c2)n(C)c(=O)n3C)cc1`, for which the AC26 is 6220 nM.
`COc1ccccc1CCNCc1ccc(OC)c(OCc2ccccc2)c1`: the AC26 is 994 nM.
Under `Cc1cccn2c(=O)c3cc(C(=O)NC4CCCC4)c(=N)n(CC4CCCO4)c3nc12` (stereo unspecified) stands 8180 nM; under `COc1cc(C(=O)Nc2ccc3c(c2)nc(C)n3C)cc(OC)c1OC`, 2690 nM.
For `O=C(CCl)N1c2ccccc2Sc2c1ccc1ccccc21`, the AC26 is 257 nM.
Consider `CCOc1ccc(OCC(=O)N(CCC2=CCCCC2)c2c(N)n(Cc3ccccc3)c(=O)[nH]c2=O)cc1`, for which the AC26 is 4380 nM.
Consider `O=C(Nc1cccc(F)c1)c1cc(S(=O)(=O)N2CCOCC2)ccc1N1CCCC1`, for which the AC26 was 947 nM.
On to `COC(=O)c1cn(C(=O)c2cccc3ccccc23)c2ccccc12`, for which the AC26 is 928 nM.
Regarding `CCOC(=O)N1CCc2cc(OC)c(OC)c3c2c1cc1cc(OC)c(OC)cc13`, the AC26 was 11100 nM.
For the compound `COc1cccc(Oc2ccc(C(F)(F)F)cc2NC(=O)CN2C(=O)NC3(CCCC3)C2=O)c1`, the AC26 is 4850 nM.
Regarding `COC(=O)c1ccc2c(=O)n(Cc3ccco3)c(SCC(=O)Nc3cc(C)on3)nc2c1`, the AC26 is 2190 nM.
Consider `COc1ccc(C(=O)/C=C/c2ccc(-c3ccccc3)cc2)cc1CSCC(=O)O`, for which the AC26 was 1480 nM.
In the case of `COc1ccc(NC(=O)C(=O)NCC2CCCN2S(=O)(=O)c2cccs2)cc1` (stereo unspecified), the AC26 was 5020 nM.
Under `CSc1ncnc2c1ncn2CCCN[C@H](C)c1cccc2ccccc12` stands 679 nM; under `Nc1nonc1C(=O)N/N=C/c1ccc([N+](=O)[O-])o1`, 6160 nM.
With `COc1cc(NC(=O)NCc2ccco2)ccc1-c1ccc(NC(=O)NCc2ccco2)cc1OC`, the AC26 is 4350 nM.
The figure for `COc1cc(C(=O)N/N=C/c2ccccn2)cc(OC)c1OC` is 1160 nM.
With `CC1(C(=O)NCc2ccco2)Cc2c(-c3cccc(C(F)(F)F)c3)ccnc2O1` (stereo unspecified), the AC26 was 7710 nM.
As to `O=C(NCCN1C(=O)S/C(=C\c2ccccc2F)C1=O)C1=COCCO1`, the AC26 is 52.9 nM.
Under `CC1CN(c2nc(-c3ccccc3)nnc2-c2ccccc2)CC(C)O1` (stereo unspecified) stands 368 nM.
Regarding `Cc1nc2c3cc(Cl)ccc3n(CCN3CCCCC3)c2s1`, the AC26 was 896 nM.
For the compound `COc1cccc(C(=O)Nc2ccc(N3CCN(C(=O)c4ccco4)CC3)cc2)c1`, the AC26 was 10700 nM.
Regarding `O=C(Nc1ncccc1O)c1ccc(S(=O)(=O)Nc2ccccc2)cc1`, the AC26 was 2190 nM.
Take `COc1ccc(-n2c(C)cc(C(=O)CCl)c2C)cc1`: the AC26 was 3980 nM.
For `O=C(NCc1ccccc1Br)c1cccc2c1C(=O)c1ccc(-c3ccc(OC(F)(F)F)cc3)cc1S2(=O)=O`, the AC26 is 4060 nM.
As to `COc1ccc(-c2cc(C)no2)cc1S(=O)(=O)Nc1ccccc1`, the AC26 was 3740 nM.
In the case of `Cc1cc(NC(=O)CN2C(=O)NC3(CCCCCC3)C2=O)ccc1Br`, the AC26 was 1570 nM.
Regarding `Cc1ccc(-c2nn3c(C)nnc3c3ccccc23)cc1S(=O)(=O)NC(C)(C)CO`, the AC26 was 826 nM.
Consider `O=C(c1ncn(Cc2ccccc2)c1C(=O)N1CCN(c2ccccc2)CC1)N1CCN(c2ccccc2)CC1`, for which the AC26 is 513 nM.
Turning to `CNc1ccc(Br)cc(C(=O)/C=C/c2ccc(OC)cc2)c1=O`, the AC26 was 2660 nM.
In the case of `O=C(Nc1nc2ccccc2c(=O)s1)c1ccco1`, the AC26 is 653 nM.
As for `CCOC(=O)/C(=C\c1ccccc1)C(=O)c1cc(C(C)=O)c(Nc2ccccc2)s1`, the AC26 was 1150 nM.
On to `O=C1/C(=C\c2ccc(Cl)cc2)CCC1CNc1ccc(Cl)cc1` (stereo unspecified), for which the AC26 was 5490 nM.
Turning to `CC(=O)c1cccc(-c2ccnc3c2CC(C(=O)NCc2cccs2)O3)c1` (stereo unspecified), the AC26 is 1070 nM.
As to `CCN(CC)CCCNc1nc2ccccc2c2nc(-c3ccncc3)nn12`, the AC26 is 2320 nM.
On to `COc1ccc(CCn2c(O)c(C=NCc3ccc4c(c3)OCO4)c(=O)[nH]c2=O)cc1OC`, for which the AC26 was 3430 nM.
Regarding `COc1ccc(C(=O)c2cc([N+](=O)[O-])ccc2N2CCN(C)CC2)cc1`, the AC26 is 2330 nM.
Consider `CC(=O)c1cccc(Nc2cc(C)nc3c(C)cccc23)c1`, for which the AC26 was 5870 nM.
With `CC1CN(C(=O)c2ccc(COc3ccc(C(C)C)cc3)o2)CC(C)O1` (stereo unspecified), the AC26 was 3780 nM.
Regarding `CN=c1sc(C(=O)Nc2cccc(Cl)c2)cc(=O)n1C`, the AC26 was 349 nM.
For the compound `CC1=CC(C)[C@H](/C=N/n2c(=O)[nH]c3c([nH]c4ccc(C)cc43)c2=O)C(C)C1` (stereo partly specified), the AC26 is 4040 nM.
For the compound `O=C(N/N=C/c1cccc(Br)c1)c1ccc(N2CCCC2=O)cc1`, the AC26 is 6630 nM.
Regarding `O=C(Nc1ccc(Cc2ccncc2)cc1)c1ccc([N+](=O)[O-])o1`, the AC26 is 1150 nM.
`Cc1ccc(NC(=O)C(Cc2ccccc2)N2C(=O)C3C4CCC(C4)C3C2=O)cc1Cl` (stereo unspecified): the AC26 is 3240 nM.
Take `COc1cc(COCC(O)CN2CCN(CCN3C(=O)c4cccc5cccc(c45)C3=O)CC2)cc(OC)c1OC` (stereo unspecified): the AC26 was 1230 nM.
Take `O=C(NCc1ccccc1)C(=O)NCC1COc2ccccc2O1` (stereo unspecified): the AC26 was 13000 nM.
Turning to `CCOc1ccc(N2C(=O)Nc3ccccc3C2(O)C(=O)N2CCN(c3ccccn3)CC2)cc1` (stereo unspecified), the AC26 was 880 nM.
For the compound `COc1cc(-c2coc3c(C(=O)NCc4ccc(OC)c(OC)c4)cccc23)ccc1O`, the AC26 is 1220 nM.
On to `OCC1OC(n2ccc3c(SCc4ccccc4)ncnc32)C(O)C1O` (stereo unspecified), for which the AC26 was 332 nM.
On to `O=C(CSCc1ccco1)Nc1cc(C(F)(F)F)ccc1N1CCOCC1`, for which the AC26 was 2080 nM.
Take `Nc1ccc(C(=O)Nc2ccccc2N)cc1`: the AC26 is 2880 nM.
As to `COc1ccc(OC)c(-c2cc(-c3cccnc3)nc(N)c2C#N)c1`, the AC26 is 2230 nM.
For `CCN1C(=O)c2cccc3c(S(=O)(=O)NCC4CCCO4)ccc1c23` (stereo unspecified), the AC26 was 2990 nM.
Turning to `CCc1nc2ccc(C(=O)NCCc3c[nH]c4ccccc34)cn2c1N(C=O)CCC(C)C`, the AC26 is 343 nM.
Take `Cc1ccc(O)c(C(=O)C=Cc2ccccc2)c1`: the AC26 was 1210 nM.
In the case of `Cc1nn(-c2ccccc2)c2c1CC(=O)Nc1ccccc1-2`, the AC26 is 329 nM.
As to `CCN(CC)CCNc1ccc(CO)c2oc3cc(Cl)ccc3c(=O)c12`, the AC26 is 2820 nM.
